Reference: patent US10280169B2, “Biaryl bruton's tyrosine kinase inhibitors” (BIOGEN MA INC., priority 2013, dated 2019)

Columns and labels:
BTK = molecular target: T1, BTK (Homo sapiens, UniProt Q06187); assay: In vitro BTK kinase assay: BTK-POLYGAT-LS assay; assay type: biochemical; conditions: 10 uM ATP, read-out: IC50 (10 uMATP)
T1 construct: purchased Upstate 14-552

pBTK = molecular target: T2, pBTK (Homo sapiens, UniProt Q06187); assay: In vitro PD assay in whole blood (pBTK assay); assay type: cell-based; conditions: 30 min at 37° C.
T2 construct: Heparinized venous blood was purchased from Bioreclamation, Inc. or SeraCare Life Sciences; tissue Bioreclamation, Inc. or SeraCare Life Sciences; host or cells: heparinized venous whole blood
T2 sequence (Q06187 whole entry): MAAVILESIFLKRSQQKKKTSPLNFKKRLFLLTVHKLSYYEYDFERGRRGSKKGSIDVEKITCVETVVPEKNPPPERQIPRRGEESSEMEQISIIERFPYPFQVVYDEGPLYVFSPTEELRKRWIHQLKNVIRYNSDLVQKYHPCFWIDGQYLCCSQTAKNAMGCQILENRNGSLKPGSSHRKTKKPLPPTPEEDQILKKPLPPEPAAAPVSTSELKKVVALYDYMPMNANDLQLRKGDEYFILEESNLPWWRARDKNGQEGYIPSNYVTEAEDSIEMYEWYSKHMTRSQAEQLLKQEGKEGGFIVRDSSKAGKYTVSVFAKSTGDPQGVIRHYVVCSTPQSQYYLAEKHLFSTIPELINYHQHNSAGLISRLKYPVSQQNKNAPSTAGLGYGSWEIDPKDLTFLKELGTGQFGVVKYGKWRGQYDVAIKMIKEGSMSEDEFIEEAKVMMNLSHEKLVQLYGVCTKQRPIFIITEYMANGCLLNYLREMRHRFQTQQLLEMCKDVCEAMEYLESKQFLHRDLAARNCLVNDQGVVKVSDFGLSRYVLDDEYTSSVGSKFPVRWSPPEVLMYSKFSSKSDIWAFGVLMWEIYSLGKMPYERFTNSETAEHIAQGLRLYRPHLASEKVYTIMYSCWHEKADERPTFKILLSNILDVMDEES
Experimental: Heparinized venous blood was purchased from Bioreclamation, Inc. or SeraCare Life Sciences and shipped overnight. Whole blood was aliquoted into 96-well plate and “spiked” with serial dilutions of test compound in DMSO or with DMSO without drug. The final concentration of DMSO in all wells was 0.1%. The plate was incubated at 37° C. for 30 min. Lysis buffer containing protease and phosphatase inhibitors was added to the drug-containing samples and one of the DMSO-only samples (+PPi, high control), while lysis buffer containing protease inhibitors was added to the other DMSO-only samples (−PPi, low control). All of the lysed whole blood samples were subjected to the total BTK capture and phosphotyrosine detection method described in Example 30. ECL values were graphed in Prism and a best-fit curve with restrictions on the maximum and minimum defined by the +PPi high and −PPi low controls was used to estimate the test compound concentration that results in 50% inhibition of ECL signal by interpolation.
In some instances where a compound tested has activity “D”, other structurally similar compounds beyond the measurable limits of the assay are not included in Table 2.

T1 sequence (Q06187 whole entry): as above

Row | SMILES | IC50 (BTK) | IC50 (pBTK)
1 | Cc1cc(-c2ncnc3cc(-c4cn(C)nc4C)[nH]c23)ccc1CNC(=O)c1cnc(C(C)(C)C)s1 [Example I-39, 2-(tert-butyl)-N-(4-(6-(1,3-dimethyl-1H-pyrazol-4-yl)-5H-pyrrolo[3,2-d]pyrimidin-4-yl)-2-methylbenzyl)thiazole-5-carboxamide] | < 10 nM | < 500 nM
2 | Cc1cc(-c2ncnc3[nH]c(C4=CCN(C(=O)N(C)C)CC4)cc23)ccc1CNC(=O)c1cnc(C(C)(C)C)s1 [Example I-19, 2-(tert-butyl)-N-(4-(6-(1-(dimethylcarbamoyl)-1,2,3,6-tetrahydropyridin-4-yl)-7H-pyrrolo[2,3-d]pyrimidin-4-yl)-2-methylbenzyl)thiazole-5-carboxamide] | < 10 nM | < 500 nM
3 | CC(C)(C)c1csc(C(=O)NC2CCCc3cc(-c4ncnc5[nH]ncc45)ccc32)n1 (stereo not drawn) [Example I-98, N-(6-(1H-pyrazolo[3,4-d]pyrimidin-4-yl)-1,2,3,4-tetrahydronaphthalen-1-yl)-4-(tert-butyl) thiazole-2-carboxamide] | < 10 nM | > 10000 nM
